Results: patent publication US20220340983A1, “SYSTEMS AND ASSAYS FOR IDENTIFYING PU.1 INHIBITORS” (Massachustts Institute of Technology, priority 2019, published 2022)

What was measured:
[1] = test system: PU.1 dependent gene expression; test: RT-qPCR of mRNA levels in BV2 PU.1-Luciferase cells (validation round 3); assay type: cell-based, mouse; settings: 2-day treatment
Protocol: The Asinex1 and ChemDiv6 libraries contain molecules with unknown biological properties, but with low toxicity, high stability, and a broad structural diversity used to generate structure-activity-relationships (SAR) of the PU.1 inhibitors. […] In order to obtain the SAR, three rounds of validation were performed. In round 1, false-positive, non-specific luciferase quencher molecules were excluded using the commercially available HEK293 CMV-Luciferase line that constitutively expresses luciferase under the CMV promoter. In round 2, weak (non-significant) hits were eliminated according to degree of PU.1 inhibition in the absence of cell death. In round 3, drugs were selected that reduce PU.1-dependent gene expression with RT-qPCR.

[2] = molecular target: T1, PU.1 (Mus musculus, UniProt P17433); test: Luciferase assay (luminescence) in BV2 PU.1-Luciferase reporter cells; assay type: cell-based; settings: luminescence reduction in BV2 PU.1-Luciferase cells, concentration-response, Hill's equation
T1 construct: endogenous in cells; host or cells: BV2 PU.1-Luciferase (mouse microglial BV2 with a 5xLBB-luciferase reporter integrated at ROSA26)
Description: PU.1 belongs to a group of transcription factors that all bind to the middle 5′-GGAA-3′ sequence. The flanking A/T rich sequence is crucial for conferring PU.1 selective binding. The flanking sequence requires unique structural properties of PU.1 and can therefore be targeted by drugs acting as allosteric inhibitors that prevent PU.1 from binding to the LBB. In order to achieve robust PU.1 binding, five tandem copies of the LBBs (5×LBB) were inserted into the luciferase promoter of the pGL4.23 plasmid. The region containing the five LBBs (5×LBB) was then subcloned into the pROSA26-1 plasmid (together with a PGKneo bpA plasmid for Neomycin/G418 resistance) that allows stable integration in chromosome 6 of the immortalized mouse microglial BV2 cell line (FIG. 2B). The stable cell line was created by selection with G418.
The BV2 PU.1-Luciferase cells (referred to as “cells” from here onward) were plated into a 384-well plate, using an automatic dispenser, 2000 cells per well in 30 μL of media composed of RPMI (Sigma-Aldrich), 10% FBS, 1% PenStrep (50 mg/mL) and 1% G418 (50 mg/mL) was plated. A robotic arm was used to transfer compounds in a 384-well format using a pin array into the plate containing the cells (here, 33 nL was transferred from a drug library containing 10 mM concentration of drugs for a final concentration of 10 μM per well). For reproducibility, each pin array with 384 compounds was added to 4 plates of cells. […] Subsequently, automatic of 30 μL of BrightGlo (Promega) was dispensed into 2 of the 4 plates, in order to lyse the cells and drive the luminescence reaction whereafter the luminescence intensity was measured by a plate reader (Perkin Elmer EnVision). The two other plates were fixed by automatically dispensing 30 μL of 10% formaldehyde with 2μL Hoechst per 1 mL formaldehyde which were left at room temperature for one hour, followed by plate reading (Acumen (TTPLabTech)). A compound transfer and treatment would be repeated if reproducibility between the luminescence plates and/or the fixed Hoechst plates was lacking. The drugs were selected and ranked according to the criteria described in FIG. 13. Luminescence values used were corrected for crosstalk. Hoechst values were total fluorescence area per well. Determination of a positive hit considered both the reduction of luminescence as well as a possible confounding reduction in cell viability. The formula used was y=(value−meanvalue)/stddev. […] Compounds were excluded if cell viability was reduced >2 standard deviations from the mean, using the same formula. The positive hits were then validated in multiple steps in order to identify true PU.1 inhibitors.
The degree of luminescence reduction of the hits was plotted with significant effective area under the curve in order to obtain an IC50.

Structure (SMILES) | mRNA levels Apoe [1] | mRNA levels IL1β [1] | mRNA levels Lucif. [1] | mRNA levels Spi1 [1] | mRNA levels Trem2 [1] | mRNA levels Tyrobp [1] | IC50 [2] [nM]
COc1cc(NS(=O)(=O)c2ccc3c(c2)CCN3S(C)(=O)=O)cc(OC)c1 [Compound 2F5] | 0.790 multiples of 1× | 0.767 multiples of 1× | 0.590 multiples of 1× | 0.783 multiples of 1× | 0.901 multiples of 1× | 0.985 multiples of 1× | 3540
COc1ccc(NS(=O)(=O)c2ccc3c(c2)CCCN3C(=O)C2CCC2)cc1OC [Compound 2F7] | 1.146 multiples of 1× | 0.460 multiples of 1× | 0.216 multiples of 1× | 0.936 multiples of 1× | 1.442 multiples of 1× | 1.498 multiples of 1× | 1420
Cc1c(Cl)ccc2sc(N3CCN(C(=O)CCS(=O)(=O)c4ccc(F)cc4)CC3)nc12 [Compound 2F9] | 0.928 multiples of 1× | 0.821 multiples of 1× | 0.655 multiples of 1× | 1.020 multiples of 1× | 0.890 multiples of 1× | 0.904 multiples of 1× | 1330
Cc1cccc(Cn2cccc(C(=O)Nc3nc4ccccc4s3)c2=O)c1 [Compound 2F11] | 1.005 multiples of 1× | 1.086 multiples of 1× | 0.640 multiples of 1× | 0.943 multiples of 1× | 1.012 multiples of 1× | 1.002 multiples of 1× | 303
Cn1nccc1C(=O)NCc1ccc2c(c1)CCN2C(=O)c1ccc(F)cc1 [Compound 2G2] | 0.957 multiples of 1× | 0.887 multiples of 1× | 0.294 multiples of 1× | 0.958 multiples of 1× | 1.071 multiples of 1× | 0.963 multiples of 1× | 4800
CCCCN(c1ccccc1)c1ncnc2c1cnn2-c1ccc(Cl)cc1 [Compound 2G8] | 1.119 multiples of 1× | 1.362 multiples of 1× | 0.497 multiples of 1× | 1.179 multiples of 1× | 1.237 multiples of 1× | 1.469 multiples of 1× | 967
CSc1ccc(C=Cc2nc3ccccc3n2S(=O)(=O)c2ccc(F)c(C)c2)cc1 [Compound 2G10] | 0.899 multiples of 1× | 0.786 multiples of 1× | 0.531 multiples of 1× | 0.790 multiples of 1× | 0.993 multiples of 1× | 0.855 multiples of 1× | 507
CCOc1ccc(-c2nc(CSCC(=O)NCc3ccc(C)cc3)c(C)o2)cc1 [Compound 2H2] | 1.739 multiples of 1× | 0.706 multiples of 1× | 0.299 multiples of 1× | 1.251 multiples of 1× | 1.668 multiples of 1× | 1.952 multiples of 1× | 380
